Measured values reported in the SangsterLogP compilation.

Assay: method code SF, from DOI: 10.2307/3575799, PMID: 7199747
Details: pH 7.4

| logD | Structure (SMILES) |
| --- | --- |
| 0.44 | CCC(=O)OCCN(CCOC(=O)CC)C(=O)Cn1ccnc1[N+](=O)[O-] |
| -1.66 | O=COCCN(CCOC=O)C(=O)Cn1ccnc1[N+](=O)[O-] |
| -1.22 | NC(=O)Cn1ccnc1[N+](=O)[O-] |
| -1.64 | CC(C(=O)NCC(O)CO)n1ccnc1[N+](=O)[O-] (stereo not given) |
| -1.77 | O=C(Cn1ccnc1[N+](=O)[O-])NC(CO)(CO)CO |
| -1.16 | CC(C(=O)NCCO)n1ccnc1[N+](=O)[O-] (stereo not given) |
| -1.59 | O=C(Cn1ccnc1[N+](=O)[O-])N(CCO)CCO |

Assay: method code SF-AS, from DOI: 10.2307/3575799, PMID: 7199747
Details: pH 7.4

| logD | Structure (SMILES) |
| --- | --- |
| -0.77 | CC(=O)OCC(CNC(=O)Cn1ccnc1[N+](=O)[O-])OC(C)=O (stereo not given) |
| -0.96 | CC(O)CN(CC(C)O)C(=O)Cn1ccnc1[N+](=O)[O-] (stereo not given) |
| -0.64 | CC(=O)OCCN(CCOC(C)=O)C(=O)Cn1ccnc1[N+](=O)[O-] |
